According to PMC12718081 (ACS Infectious Diseases, 2025):
“And” between values parts separate entries of the source, which are not always exact repeats. Identical values can stand only once. “Also recorded” adds a separate entry of the source. Like-named read-outs stand apart in the source and are kept apart here.

Experiments:
juvenile schistosomes = experiment: Microscopy analysis of juvenile morphology and motility (viability score 0-3); conditions: 10 μM, 72 h; for number of juvenile worms with viability score 0 / number of juvenile worms with viability score 1 / number of juvenile worms with viability score 2 / number of juvenile worms with viability score 3: Table S1
Sm.TRPMMCLZ = experiment: Ca2+ reporter (FLIPR) activation assay, Sm.TRPMMCLZ in HEK293 cells; format: cell-based, Schistosoma mansoni; conditions: at the tested concentrations, data not shown
Protocol: (§1) Finally, selectivity for Sm.TRPMPZQ was assessed by profiling responses on the F. hepatica (Fh.TRPMPZQ) and E. granulosus (Eg.TRPMPZQ) TRPMPZQ orthologs, as well as the schistosome TRPM paralog Sm.TRPMMCLZ, a distinct TRPM channel activated by meclonazepam. Meclonazepam is an anthelmintic benzodiazepine known for its toxicity to juvenile schistosome worms.
(§2) The Ca^2+ reporter assay was performed using a Fluorescence Imaging Plate Reader (FLIPR) system, as described in the Supporting Information. […]
(§3) The half-maximal inhibitory
(§4) Windows (GraphPad Software, Boston, MA, USA; www.graphpad.com). […]
(§5) with DMSO as a negative control. […]
(§6) reader. […] The fluorescence
(§7) Untransfected HEK293 cells were used as a control.
(§8) 10% fetal bovine serum (FBS). […]
(§9) atmosphere containing 5% CO₂. Following incubation, the growth medium was removed and […]
(§10) buffer containing 2.5 mM probenecid in HBSS (with Ca²⁺ and Mg²⁺), 20 mM HEPES, 0.3% BSA (Sigma, A7030), and 0.03% L-ascorbic acid (Sigma). Cells were incubated for 40 minutes at 37 °C and subsequently for 20 minutes at room temperature. A total of seven PZQ derivatives were tested, using racemic PZQ included as a positive control on each assay plate. Drug dilutions were prepared in assay buffer without dye and probenecid and dispensed into separate flat-bottom 384-well plates. Calcium flux measurements were performed at room temperature using a […]
(§11) instrument (Molecular Devices). Baseline fluorescence was recorded for 20 seconds, followed by the addition of 5 µL of each drug solution, after which fluorescence was measured continuously for 250 seconds. […]

Fh.TRPMPZQ = experiment: Ca2+ reporter (FLIPR) activation assay, Fh.TRPMPZQ in HEK293 cells; format: cell-based, Fasciola hepatica; conditions: at the tested concentrations, data not shown
Protocol: as §1, §2, §3, §4, §5, §6, §7, §8, §9, §10, §11

[1] = tested on: juvenile schistosomes (21 days p.i.); experiment: XTT juvenile viability assay; format: cell-based, Schistosoma mansoni; conditions: 100 μM, 48 h
in vitro = conditions: human, HepG2 cytotoxicity (CC50)
Protocol: (§12) Next, we conducted a more detailed investigation by performing dose–response assays with each compound on HepG2 hepatic epithelial cells, as the liver is one of the major organs affected in intestinal schistosomiasis.
(§13) More details are provided in the Supporting Information.
(§14) Adult worm ex-vivo high-content assay
(§15) Male and female worms were placed in 96-well microplates (one worm per well) and incubated […]
(§16) to 72 hours. Brightfield timelapse images (100 images, 0.3-second intervals) were captured from each well before, immediately after, and every 24 hours following compound addition using an ImageXpress Micro Confocal High Content System equipped with a 2x objective. Image analysis was performed through a custom pipeline in CellProfiler software (v. 4.2.1, Windows OS).57 During analysis, the area of each worm and its displacement between consecutive image captures (i.e., images taken at successive time points) were measured using the parameters “Area” and “False Negative Rate” from the MeasureObjectSizeShape and MeasureObjectOverlap modules, respectively. These measurements were then modeled by a multilevel generalized linear statistical model. The effects of the experimental treatments on parasite motility were estimated with the integrated nested Laplace approximation (INLA) method, available in the INLA package of R (https://www.r-inla.org). The half-maximal inhibitory concentration (EC50) of each compound was calculated based on the worms' estimated motility using the […] 4-parameter logistic equation in GraphPad Prism version 9.0.0 for Windows (GraphPad Software, Boston, MA, USA; www.graphpad.com). […]
(§17) either at a fixed concentration (10 µM) or across a range of concentrations (0.0001–300 µM), or with DMSO as a negative control. Two hours before the end of the experiment (t0), a resazurin solution (final concentration: 0.01 mg/mL) was added to each well and the first fluorescence […]
(§18) reader. At the end of the incubation (t1), a second reading was performed. The fluorescence attributed solely to resorufin was measured by subtracting the fluorescence readings at t0 from those at t1. The results were expressed as percentual cell viability considering negative control

[2] = tested on: HepG2 hepatic epithelial cells; experiment: in vitro; conditions: for Selectivity Index (CC50/EC50), Male: HepG2 CC50 / male worm motility EC50, 48 h
Protocol: as §12, §13, §14, §15, §16, §17, §18

Eg.TRPMPZQ = Eg.TRPMPZQ (Echinococcus granulosus, UniProt W6UVV9); experiment: cell-based; conditions: HEK293, Ca2+ reporter, mean ± standard deviation; for Emax: read-out: Bmax, Eg.TRPMPZQ activation
[3] = tested on: adult schistosomes (male and female worms); experiment: Adult worm ex vivo high-content image-based motility assay; format: cell-based, Schistosoma mansoni
Protocol: Adult schistosomes’ motility was determined using a high-content assay previously developed by our group, , with images analyzed in CellProfiler software. More details are provided in the Supporting Information.
as §14
(§19) “Area” and “False Negative Rate” from the MeasureObjectSizeShape and MeasureObjectOverlap modules, respectively. These measurements were then modeled by a multilevel generalized linear statistical model. The effects of the experimental treatments on […]
as §3, §4
with DMSO as a negative control.

Sm.TRPMPZQ (wild-type) = Sm.TRPMPZQ (wild-type) (Schistosoma mansoni, UniProt A0A5K4F0X5); experiment: Ca2+ reporter (FLIPR) activation assay, wild-type Sm.TRPMPZQ in HEK293 cells; format: cell-based
Protocol: as §2, §3, §4, §5, §6, §7, §8, §9
buffer containing 2.5 mM probenecid in HBSS (with Ca²⁺ and Mg²⁺), 20 mM HEPES, 0.3% BSA (Sigma, A7030), and 0.03% L-ascorbic acid (Sigma). Cells were incubated for 40 minutes at 37 °C and subsequently for 20 minutes at room temperature. […]
prepared in assay buffer without dye and probenecid and dispensed into separate flat-bottom 384-well plates. Calcium flux measurements were performed at room temperature using a […]
as §11

S. mansoni schistosomula = experiment: Roboworm high-content screening assay on schistosomula (motility and phenotype scores); format: cell-based, Schistosoma mansoni; conditions: 25 μM, 72 h
Protocol: All PZQ derivatives were synthesized in the racemic form and evaluated as such. The compounds were initially screened at 10 μM against S. mansoni schistosomula using the Roboworm high-content screening assay , and were declared hits or nonhits based on their effect on parasites’ motility and phenotype scores after 72 h of incubation. As none of the compounds were considered hits at this concentration, we performed a titration from 6.25 to 50 μM (Figure S27).
DMSO was included as a negative control. Compounds were considered hits if both their motility and phenotype scores were lower than −0.35 and −0.15, respectively (region delimited by the dashed lines). In red, PZQ analogues selected for further analysis.
For the collection of schistosomula, B. glabrata snails infected with S. mansoni were shed for 2 h under light at 26 °C. Cercariae were collected, mechanically transformed into schistosomula as previously described.
DMSO (0.625%, v/v) was included as a negative control. Z′ values for the assay were calculated to be 0.542 for phenotype and 0.361 for motility. […]
(§20) Auranofin (AUR) was included at 10 µM as positive control. DMSO was included as a negative control. Compounds were considered hits if both their motility and phenotype scores were lower than -0.35 and -0.15, respectively (region delimited by the […]

Sm.TRPMPZQ = experiment: Ca2+ reporter assay in antagonist mode (block of PZQ activation of Sm.TRPMPZQ); format: cell-based, Schistosoma mansoni; conditions: preincubation 1 nM-100 μM for 10 min, data not shown
Protocol: The Ca^2+ reporter assay was performed using a Fluorescence Imaging Plate Reader (FLIPR) system, as described in the Supporting Information.
as §14, §19, §3, §4, §5, §6, §7, §8, §9, §10, §11
as §20, with “schistosomula after 72h of incubation using the Roboworm high-content screening assay. Auranofin” for “Auranofin”
(1 picture or pasted object on this page, not shown here)

[4] = Schistosoma mansoni, 24 h, male adult worms, 24 h, single experiment or geometric mean, read-out: Male worm motility inhibition (EC50)
[5] = Schistosoma mansoni, 48 h, male adult worms, 48 h, single experiment or geometric mean, read-out: Male worm motility inhibition (EC50)
[6] = Schistosoma mansoni, 72 h, male adult worms, 72 h, single experiment or geometric mean, read-out: Male worm motility inhibition (EC50)

Sequence of Eg.TRPMPZQ (W6UVV9 entry or part of it): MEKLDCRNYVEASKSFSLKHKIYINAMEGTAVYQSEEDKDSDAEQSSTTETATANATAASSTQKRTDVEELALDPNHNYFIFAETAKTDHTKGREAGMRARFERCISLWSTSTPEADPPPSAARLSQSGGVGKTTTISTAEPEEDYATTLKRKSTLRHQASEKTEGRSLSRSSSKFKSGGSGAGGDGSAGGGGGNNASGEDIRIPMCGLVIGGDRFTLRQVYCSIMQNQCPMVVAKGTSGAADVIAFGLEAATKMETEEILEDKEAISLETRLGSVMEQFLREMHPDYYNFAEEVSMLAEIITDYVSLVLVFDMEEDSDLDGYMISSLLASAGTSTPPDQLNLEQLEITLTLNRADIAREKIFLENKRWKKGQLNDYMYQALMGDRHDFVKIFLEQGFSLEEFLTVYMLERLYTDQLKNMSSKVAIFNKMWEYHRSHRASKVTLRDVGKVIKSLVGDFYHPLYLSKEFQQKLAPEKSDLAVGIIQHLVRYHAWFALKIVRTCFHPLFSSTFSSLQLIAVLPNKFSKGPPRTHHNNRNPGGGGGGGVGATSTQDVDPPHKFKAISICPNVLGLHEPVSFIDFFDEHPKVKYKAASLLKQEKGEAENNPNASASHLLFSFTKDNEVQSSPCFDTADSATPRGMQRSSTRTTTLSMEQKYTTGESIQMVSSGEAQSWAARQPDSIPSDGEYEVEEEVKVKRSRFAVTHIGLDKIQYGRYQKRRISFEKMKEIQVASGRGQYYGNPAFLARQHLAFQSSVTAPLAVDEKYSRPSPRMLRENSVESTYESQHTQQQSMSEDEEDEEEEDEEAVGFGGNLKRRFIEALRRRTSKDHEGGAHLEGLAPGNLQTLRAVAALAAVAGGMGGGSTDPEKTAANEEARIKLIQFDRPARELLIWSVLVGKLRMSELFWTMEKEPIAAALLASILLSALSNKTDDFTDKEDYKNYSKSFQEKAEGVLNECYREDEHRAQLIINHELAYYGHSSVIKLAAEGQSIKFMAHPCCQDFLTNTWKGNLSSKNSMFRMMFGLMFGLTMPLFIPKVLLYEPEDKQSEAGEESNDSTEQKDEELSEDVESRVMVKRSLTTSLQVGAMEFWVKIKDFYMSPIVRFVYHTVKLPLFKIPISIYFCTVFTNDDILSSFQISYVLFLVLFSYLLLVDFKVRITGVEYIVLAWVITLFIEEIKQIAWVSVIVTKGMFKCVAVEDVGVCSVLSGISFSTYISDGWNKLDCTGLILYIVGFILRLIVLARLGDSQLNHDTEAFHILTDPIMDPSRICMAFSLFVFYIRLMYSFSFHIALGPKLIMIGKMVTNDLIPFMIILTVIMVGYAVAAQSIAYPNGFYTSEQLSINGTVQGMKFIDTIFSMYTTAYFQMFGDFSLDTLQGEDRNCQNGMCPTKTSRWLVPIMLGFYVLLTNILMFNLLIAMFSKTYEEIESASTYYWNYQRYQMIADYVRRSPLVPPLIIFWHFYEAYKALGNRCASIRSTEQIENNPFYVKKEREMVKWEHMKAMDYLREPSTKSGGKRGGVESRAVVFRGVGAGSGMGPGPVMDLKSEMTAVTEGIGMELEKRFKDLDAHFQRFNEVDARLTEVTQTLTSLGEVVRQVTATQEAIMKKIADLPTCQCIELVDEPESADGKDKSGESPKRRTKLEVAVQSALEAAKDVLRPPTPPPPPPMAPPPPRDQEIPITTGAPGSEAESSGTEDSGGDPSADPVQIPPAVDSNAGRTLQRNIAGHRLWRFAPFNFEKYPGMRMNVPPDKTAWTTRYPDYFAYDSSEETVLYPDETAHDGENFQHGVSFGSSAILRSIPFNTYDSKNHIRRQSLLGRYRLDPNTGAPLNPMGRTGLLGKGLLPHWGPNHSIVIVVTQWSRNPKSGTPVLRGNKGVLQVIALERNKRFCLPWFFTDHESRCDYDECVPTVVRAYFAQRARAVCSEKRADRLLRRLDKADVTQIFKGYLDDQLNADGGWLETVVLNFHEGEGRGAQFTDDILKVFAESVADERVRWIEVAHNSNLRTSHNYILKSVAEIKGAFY
Sequence of Sm.TRPMPZQ (wild-type) (A0A5K4F0X5 entry or part of it): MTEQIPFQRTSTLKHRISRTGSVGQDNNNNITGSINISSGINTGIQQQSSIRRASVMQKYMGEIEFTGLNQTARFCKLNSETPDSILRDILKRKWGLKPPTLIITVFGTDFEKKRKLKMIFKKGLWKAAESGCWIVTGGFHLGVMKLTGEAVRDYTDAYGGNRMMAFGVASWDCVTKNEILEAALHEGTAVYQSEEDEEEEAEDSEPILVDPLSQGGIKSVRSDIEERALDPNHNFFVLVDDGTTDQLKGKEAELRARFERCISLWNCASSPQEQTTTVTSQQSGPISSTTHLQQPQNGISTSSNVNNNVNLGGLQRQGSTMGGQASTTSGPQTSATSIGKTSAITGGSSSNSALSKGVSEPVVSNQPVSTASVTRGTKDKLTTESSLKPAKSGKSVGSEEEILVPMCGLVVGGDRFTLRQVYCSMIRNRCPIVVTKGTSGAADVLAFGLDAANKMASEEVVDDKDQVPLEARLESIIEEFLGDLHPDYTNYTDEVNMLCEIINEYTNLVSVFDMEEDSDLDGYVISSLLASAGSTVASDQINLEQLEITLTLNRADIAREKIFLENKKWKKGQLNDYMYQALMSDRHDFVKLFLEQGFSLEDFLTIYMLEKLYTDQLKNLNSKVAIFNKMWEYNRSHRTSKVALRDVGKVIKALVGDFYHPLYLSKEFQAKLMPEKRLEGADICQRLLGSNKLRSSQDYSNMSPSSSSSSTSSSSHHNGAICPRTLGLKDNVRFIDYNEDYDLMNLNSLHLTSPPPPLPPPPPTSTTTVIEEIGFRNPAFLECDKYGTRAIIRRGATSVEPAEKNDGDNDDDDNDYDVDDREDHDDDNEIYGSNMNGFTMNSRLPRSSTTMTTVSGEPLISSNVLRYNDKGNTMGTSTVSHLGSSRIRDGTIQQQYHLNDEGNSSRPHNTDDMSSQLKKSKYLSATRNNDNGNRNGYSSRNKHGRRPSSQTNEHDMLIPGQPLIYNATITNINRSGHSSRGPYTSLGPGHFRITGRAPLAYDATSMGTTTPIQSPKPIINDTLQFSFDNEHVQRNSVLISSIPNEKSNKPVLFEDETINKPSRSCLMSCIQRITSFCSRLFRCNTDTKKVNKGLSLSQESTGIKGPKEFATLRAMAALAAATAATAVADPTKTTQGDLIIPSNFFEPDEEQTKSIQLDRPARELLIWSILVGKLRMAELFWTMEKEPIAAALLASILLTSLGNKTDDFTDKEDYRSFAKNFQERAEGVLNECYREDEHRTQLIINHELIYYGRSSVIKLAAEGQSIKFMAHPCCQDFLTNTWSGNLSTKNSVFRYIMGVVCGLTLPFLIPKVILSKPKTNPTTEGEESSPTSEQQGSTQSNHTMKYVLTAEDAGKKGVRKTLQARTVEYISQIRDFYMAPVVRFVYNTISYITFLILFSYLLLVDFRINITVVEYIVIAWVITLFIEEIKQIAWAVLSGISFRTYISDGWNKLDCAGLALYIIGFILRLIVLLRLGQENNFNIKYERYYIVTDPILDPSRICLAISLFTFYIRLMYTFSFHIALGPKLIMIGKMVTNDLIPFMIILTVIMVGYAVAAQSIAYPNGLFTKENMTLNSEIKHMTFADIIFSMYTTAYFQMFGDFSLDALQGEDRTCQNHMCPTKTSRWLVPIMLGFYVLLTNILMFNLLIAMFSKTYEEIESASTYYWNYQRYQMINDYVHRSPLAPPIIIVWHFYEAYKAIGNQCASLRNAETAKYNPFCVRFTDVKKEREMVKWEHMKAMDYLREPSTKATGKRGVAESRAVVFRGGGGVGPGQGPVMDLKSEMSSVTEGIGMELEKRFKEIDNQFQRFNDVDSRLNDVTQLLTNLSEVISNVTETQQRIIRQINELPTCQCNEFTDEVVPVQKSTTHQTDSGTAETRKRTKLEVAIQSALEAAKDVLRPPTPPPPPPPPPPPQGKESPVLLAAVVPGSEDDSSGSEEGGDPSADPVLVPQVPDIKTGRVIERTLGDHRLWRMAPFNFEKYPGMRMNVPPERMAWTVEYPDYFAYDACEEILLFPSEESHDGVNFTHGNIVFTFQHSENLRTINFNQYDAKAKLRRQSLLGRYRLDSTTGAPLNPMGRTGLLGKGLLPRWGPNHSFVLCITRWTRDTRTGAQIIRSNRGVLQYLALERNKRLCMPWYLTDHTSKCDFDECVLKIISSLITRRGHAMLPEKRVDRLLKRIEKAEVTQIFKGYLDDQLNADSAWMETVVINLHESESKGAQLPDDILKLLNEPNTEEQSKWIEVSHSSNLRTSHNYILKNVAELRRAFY

Nc1ccc2c(c1)C1CN(C(=O)C3CCCCC3)CC(=O)N1CC2 (stereo not shown) [Compound 3, 9-NH2–PZQ]
number of juvenile worms with viability score 0 (juvenile schistosomes): 38
number of juvenile worms with viability score 1 (juvenile schistosomes): 2
number of juvenile worms with viability score 2 (juvenile schistosomes): 14
number of juvenile worms with viability score 3 (juvenile schistosomes): 38
activation of Sm.TRPMMCLZ (Sm.TRPMMCLZ): did not activate
activation of Fh.TRPMPZQ (Fh.TRPMPZQ): did not activate
parasite metabolic activity compared to the DMSO control group (XTT) [1]: significantly decreased
CC50 at 48 h (in vitro): ~300 µM
Selectivity Index (CC50/EC50), Female ([2]; HepG2 CC50 / female worm motility EC50, 48 h): >30
Selectivity Index (CC50/EC50), Male [2]: >67
CC50 ([2]; human, 48 h): > 300 µM
Emax (Eg.TRPMPZQ): 138 ± 13.2%
EC50 ([3]; Schistosoma mansoni, 0 h, female adult worms, 0 h (immediately after addition), single experiment or geometric mean, read-out: Female worm motility inhibition (EC50)): 8.36 µM
EC50 ([3]; Schistosoma mansoni, 24 h, female adult worms, 24 h, single experiment or geometric mean, read-out: Female worm motility inhibition (EC50)): 9.6 µM
EC50 ([3]; Schistosoma mansoni, 24 h, female, 24 h, individual experiments, read-out: Female worm motility inhibition (EC50), values of independent experiments): 9.04 µM
EC50 [3, 4]: 5.4 µM
EC50 ([3]; Schistosoma mansoni, 48 h, female adult worms, 48 h, single experiment or geometric mean, read-out: Female worm motility inhibition (EC50)): 9.9 µM
EC50 ([3]; Schistosoma mansoni, 48 h, female, 48 h, individual experiments, read-out: Female worm motility inhibition (EC50), values of independent experiments): 9.36 µM
EC50 [3, 5]: 4.5 µM
EC50 ([3]; Schistosoma mansoni, 48 h, male, 48 h, individual experiments, read-out: Male worm motility inhibition (EC50), values of independent experiments): 3.94 µM
EC50 ([3]; Schistosoma mansoni, 72 h, female adult worms, 72 h, single experiment or geometric mean, read-out: Female worm motility inhibition (EC50)): 11.2 µM
EC50 ([3]; Schistosoma mansoni, 72 h, female, 72 h, individual experiments, read-out: Female worm motility inhibition (EC50), values of independent experiments): 8.77 µM
EC50 [3, 6]: 3.5 µM
EC50 ([3]; Schistosoma mansoni, 72 h, male, 72 h, individual experiments, read-out: Male worm motility inhibition (EC50), values of independent experiments): 3.8 µM
EC50 ([3]; female adult worms, 72 h, single experiment or geometric mean, read-out: Female worm motility inhibition (EC50)): 11 µM
EC50 ([3]; female, 24 h, individual experiments, read-out: Female worm motility inhibition (EC50), values of independent experiments): 10.2 µM
EC50 ([3]; female, 48 h, individual experiments, read-out: Female worm motility inhibition (EC50), values of independent experiments): 10.5 µM
EC50 ([3]; female, 72 h, individual experiments, read-out: Female worm motility inhibition (EC50), values of independent experiments): 14.3 µM
EC50 ([3]; male, 24 h, individual experiments, read-out: Male worm motility inhibition (EC50), values of independent experiments): 8.1 µM and 5.61 µM and 3.44 µM
EC50 ([3]; male, 48 h, individual experiments, read-out: Male worm motility inhibition (EC50), values of independent experiments): 4.56 µM
EC50 ([3]; male, 72 h, individual experiments, read-out: Male worm motility inhibition (EC50), values of independent experiments): 3.29 µM and 3.58 µM
EC50 (Sm.TRPMPZQ (wild-type); 0.001 to 100 μM): 7.09 ± 0.18 µM
Emax (Sm.TRPMPZQ (wild-type); read-out: Bmax, wild-type Sm.TRPMPZQ activation): 90 ± 1.31%

O=C(C1CCCCC1)N1CC(=O)N2CCc3ccc(-n4cc(COc5ccccc5)nn4)cc3C2C1 (stereo not shown) [Compound 5c]
activity against juvenile schistosomes (grouped score analysis) (juvenile schistosomes): lacks activity
number of juvenile worms with viability score 0 (juvenile schistosomes): 19
number of juvenile worms with viability score 1 (juvenile schistosomes): 1
number of juvenile worms with viability score 2 (juvenile schistosomes): 4
number of juvenile worms with viability score 3 (juvenile schistosomes): 72
parasite metabolic activity compared to the DMSO control group (XTT) [1]: no statistically significant differences
CC50 at 48 h (in vitro): 88.1 µM
Selectivity Index (CC50/EC50), Male [2]: <0.9
Selectivity Index (SI), sex not specified ([2]; HepG2 vs adult worms, 48 h): < 1
EC50 for Eg.TRPMPZQ activation (Eg.TRPMPZQ): No signal
Emax (Eg.TRPMPZQ): 7.63 ± 0.72%
hit classification (motility and phenotype scores) (S. mansoni schistosomula): borderline
EC50 ([3]; Schistosoma mansoni, 0 h, male adult worms, 0 h (immediately after addition), single experiment or geometric mean, read-out: Male worm motility inhibition (EC50)): > 100 µM
EC50 [3, 4]: > 100 µM
EC50 [3, 5]: > 100 µM
EC50 [3, 6]: > 100 µM
block of PZQ activation of Sm.TRPMPZQ (antagonist mode) (Sm.TRPMPZQ): failed to impact subsequent responses to PZQ
Bmax, wild-type Sm.TRPMPZQ activation (Sm.TRPMPZQ (wild-type)): No activity
EC50 for wild-type Sm.TRPMPZQ activation (Sm.TRPMPZQ (wild-type); 0.001 to 100 μM): failed to activate; also recorded: No activity
